Laboratory results taken from DBAASP.
Values after ≈ are worked out from the molar mass of the structure shown. Blank lines part the entries; values can stand above or below the compound they belong to.

Experiments:
Assay in all cases: ≥ marks a high value that may be exact or a test limit, other limits are often not marked, values filed in µg/mL are converted to µM
Staphylococcus aureus = tested on: Staphylococcus aureus
Listeria innocua = tested on: Listeria innocua
Streptococcus uberis = tested on: Streptococcus uberis
[1] = tested on: Staphylococcus epidermidis
Bacillus cereus = tested on: Bacillus cereus
Enterococcus faecalis = tested on: Enterococcus faecalis
Leuconostoc lactis = tested on: Leuconostoc lactis
Micrococcus luteus = tested on: Micrococcus luteus
Escherichia coli = tested on: Escherichia coli
Pasteurella multocida = tested on: Pasteurella multocida
[2] = tested on: Pseudomonas aeruginosa Ps4
[3] = tested on: Salmonella enterica subsp. enterica serovar Enteritidis
[4] = tested on: Enterococcus faecalis ATCC 29212
Micrococcus luteus A270 = tested on: Micrococcus luteus A270
[5] = tested on: Staphylococcus aureus ATCC 2592
[6] = tested on: Candida albicans ATCC 2002
[7] = tested on: Escherichia coli ATCC 25922
[8] = tested on: Staphylococcus aureus ATCC 29213
Bacillus subtilis = tested on: Bacillus subtilis
Candida albicans = tested on: Candida albicans

SMILES: CC[C@H](C)[C@H](NC(=O)[C@@H](NC(=O)CNC(=O)[C@H](C)NC(=O)[C@@H](NC(=O)[C@H](CCCCN)NC(=O)[C@H](CCCCN)NC(=O)[C@H](CC(C)C)NC(=O)[C@H](Cc1ccccc1)NC(=O)[C@H](CC(=O)O)NC(=O)[C@@H](NC(=O)[C@H](Cc1ccccc1)NC(=O)CN)C(C)C)C(C)C)[C@@H](C)O)C(=O)N[C@@H](C)C(=O)N[C@@H](CC(N)=O)C(=O)N[C@H](C(=O)N[C@H](C(=O)N[C@H](C(N)=O)[C@@H](C)O)C(C)C)C(C)C [GFVDFLKKVAGTIANVVT]
MIC (Staphylococcus aureus): 53.2 µM (≈ 99.9 µg/mL) | MIC (Listeria innocua): ≥ 53.2 µM | MIC (Streptococcus uberis): 13.3 µM (≈ 25 µg/mL) | MIC [1]: 26.6 µM (≈ 50 µg/mL) | MIC (Bacillus cereus): ≥ 53.2 µM | MIC (Enterococcus faecalis): ≥ 53.2 µM | MIC (Leuconostoc lactis): ≥ 53.2 µM | MIC (Micrococcus luteus): ≥ 53.2 µM | MIC (Escherichia coli): > 53.2 µM | MIC (Pasteurella multocida): ≥ 53.2 µM

SMILES: CC[C@H](C)[C@H](NC(=O)[C@H](CC(N)=O)NC(=O)[C@H](CCCN=C(N)N)NC(=O)[C@H](CCC(N)=O)NC(=O)[C@H](Cc1c[nH]c2ccccc12)NC(=O)[C@H](Cc1ccccc1)NC(=O)[C@@H](N)CCCN=C(N)N)C(=O)N[C@@H](CCCN=C(N)N)C(=O)N[C@@H](CCCCN)C(=O)N[C@H](C(=O)N[C@@H](CCCN=C(N)N)C(=O)N[C@@H](CCCN=C(N)N)C(N)=O)C(C)C [RFWQRNIRKVRR]
MIC [2]: ≥ 146 µM

SMILES: CC[C@H](C)[C@H](NC(=O)[C@H](CC(N)=O)NC(=O)[C@H](CCCN=C(N)N)NC(=O)[C@H](CCC(N)=O)NC(=O)[C@H](Cc1c[nH]c2ccccc12)NC(=O)[C@H](C)NC(=O)[C@@H](N)Cc1ccccc1)C(=O)N[C@@H](CCCN=C(N)N)C(=O)N[C@@H](CCCCN)C(=O)N[C@H](C(=O)N[C@@H](CCCN=C(N)N)C(N)=O)C(C)C [FAWQRNIRKVR]
MIC [2]: ≥ 170 µM

SMILES: CC[C@H](C)[C@H](NC(=O)[C@@H](NC(=O)[C@H](C)NC(=O)[C@H](C)NC(=O)[C@@H](NC(=O)[C@H](CCCCN)NC(=O)[C@H](CCCCN)NC(=O)[C@@H](NC(=O)[C@@H](NC(=O)[C@H](C)NC(=O)[C@H](Cc1ccccc1)NC(=O)[C@H](CC(C)C)NC(=O)[C@@H](N)CCCCN)C(C)C)[C@@H](C)CC)C(C)C)C(C)C)C(=O)N[C@@H](CCCN=C(N)N)C(=O)N[C@@H](CCCN=C(N)N)C(=O)N[C@@H](CC(C)C)C(N)=O [KLFAVIKKVAAVIRRL]
MIC (Staphylococcus aureus): > 54.8 µM | MIC (Listeria innocua): 27.4 µM (≈ 50 µg/mL) | MIC (Streptococcus uberis): ≥ 54.8 µM | MIC [1]: ≥ 54.8 µM | MIC (Bacillus cereus): ≥ 54.8 µM | MIC (Leuconostoc lactis): 6.57 µM (≈ 12 µg/mL) | MIC (Micrococcus luteus): ≥ 54.8 µM | MIC (Escherichia coli): > 54.8 µM | MIC (Pasteurella multocida): ≥ 54.8 µM

SMILES: CC(C)C[C@H](NC(=O)[C@H](C)NC(=O)[C@H](CC(N)=O)NC(=O)[C@H](C)NC(=O)[C@@H](NC(=O)CNC(=O)[C@H](C)NC(=O)[C@@H](NC(=O)[C@@H](NC(=O)[C@H](CCCCN)NC(=O)[C@H](CCC(N)=O)NC(=O)[C@H](Cc1ccccc1)NC(=O)[C@H](CC(=O)O)NC(=O)[C@H](C)NC(=O)[C@H](CCC(N)=O)NC(=O)[C@H](CC(C)C)NC(=O)[C@@H](NC(=O)[C@@H]1CCCN1C(=O)[C@@H](NC(=O)[C@H](Cc1ccccc1)NC(=O)[C@@H](N)Cc1ccccc1)[C@@H](C)O)C(C)C)C(C)C)C(C)C)C(C)C)C(=O)N[C@@H](C)C(=O)N[C@@H](Cc1cnc[nH]1)C(=O)N[C@@H](CCCN=C(N)N)C(=O)N[C@@H](Cc1ccc(O)cc1)C(=O)N[C@@H](Cc1cnc[nH]1)C(=O)O [FFTPVLQADFQKVVAGVANALAHRYH]
MIC [3]: ≥ 73 µM | MIC (Listeria innocua): ≥ 73 µM | MIC (Micrococcus luteus): ≥ 85 µM | MIC (Escherichia coli): 73 µM (≈ 212 µg/mL)

SMILES: CC(C)C[C@H](NC(=O)[C@@H](N)Cc1ccccc1)C(=O)N[C@@H](CO)C(=O)N[C@@H](Cc1ccccc1)C(=O)N1CCC[C@H]1C(=O)N[C@H](C(=O)N[C@H](C(=O)N[C@@H](CCCCN)C(=O)N[C@H](C(=O)N[C@@H](Cc1ccc(O)cc1)C(=O)N[C@@H](Cc1ccccc1)C(=O)N1CCC[C@H]1C(=O)N[C@@H](Cc1cnc[nH]1)C(=O)O)[C@@H](C)O)[C@@H](C)O)[C@@H](C)O [FLSFPTTKTYFPH]
MIC [3]: 5 µM (≈ 7.93 µg/mL) | MIC (Listeria innocua): 1 µM (≈ 1.59 µg/mL) | MIC (Escherichia coli): 9 µM (≈ 14.3 µg/mL) | MIC (Micrococcus luteus A270): 5 µM (≈ 7.93 µg/mL)

SMILES: CC[C@H](C)[C@H](NC(=O)[C@@H](N)Cc1ccccc1)C(=O)N[C@@H](Cc1c[nH]c2ccccc12)C(=O)N[C@@H](CCCN=C(N)N)C(=O)N[C@@H](Cc1c[nH]c2ccccc12)C(=O)N[C@@H](CCCN=C(N)N)C(=O)N[C@@H](Cc1c[nH]c2ccccc12)C(=O)N[C@@H](CCCN=C(N)N)C(N)=O [FIWRWRWR]
MIC [2]: ≥ 47.9 µM

SMILES: CC[C@H](C)[C@H](NC(=O)[C@H](CC(N)=O)NC(=O)[C@H](CCCN=C(N)N)NC(=O)[C@H](CCC(N)=O)NC(=O)[C@H](Cc1c[nH]c2ccccc12)NC(=O)[C@@H](N)Cc1ccccc1)C(=O)N[C@@H](CCCN=C(N)N)C(=O)N[C@@H](CCCCN)C(=O)N[C@H](C(=O)N[C@@H](CCCCN)C(=O)N[C@@H](CCCCN)C(N)=O)C(C)C [FWQRNIRKVKK]
MIC [2]: ≥ 166 µM

SMILES: CC[C@H](C)[C@H](NC(=O)[C@@H](NC(=O)[C@@H]1CCCN1C(=O)[C@H](CC(C)C)NC(=O)[C@@H](N)Cc1ccccc1)[C@@H](C)CC)C(=O)N[C@@H](C)C(=O)N[C@@H](CCCCN)C(=O)N[C@@H](CC(C)C)C(=O)N[C@@H](CC(C)C)C(=O)NCC(=O)NCC(=O)N[C@@H](CC(C)C)C(=O)N[C@@H](CC(C)C)C(N)=O [FLPIIAKLLGGLL]
MIC [5]: 3.66 µM (≈ 5 µg/mL) | MIC [6]: 18.3 µM (≈ 25 µg/mL) | MIC [7]: 21.9 µM (≈ 30 µg/mL)

Results, then the compound that gave them:

MIC [4]: 100 µM (≈ 168 µg/mL) | MIC (Leuconostoc lactis): ≥ 50 µM
SMILES: CC[C@H](C)[C@H](NC(=O)CNC(=O)[C@@H](NC(=O)[C@@H](NC(=O)[C@H](Cc1cnc[nH]1)NC(=O)[C@H](CCCCN)NC(=O)[C@H](C)NC(=O)[C@H](Cc1ccccc1)NC(=O)[C@H](CC(=O)O)NC(=O)[C@H](CC(C)C)NC(=O)[C@H](CC(C)C)NC(=O)CN)C(C)C)[C@@H](C)CC)C(=O)N[C@@H](C)C(=O)N[C@@H](CO)C(=O)N[C@@H](CCCCN)C(=O)N[C@@H](CC(C)C)C(N)=O [GLLDFAKHVIGIASKL]

MIC (Staphylococcus aureus): 38.4 µM (≈ 100 µg/mL) | MIC (Listeria innocua): ≥ 38.4 µM | MIC (Streptococcus uberis): ≥ 38.4 µM | MIC [1]: 9.6 µM (≈ 25 µg/mL) | MIC (Bacillus cereus): 19.2 µM (≈ 50 µg/mL) | MIC (Leuconostoc lactis): 4.61 µM (≈ 12 µg/mL) | MIC (Micrococcus luteus): 0.154 µM (≈ 0.4 µg/mL) | MIC (Escherichia coli): 19.2 µM (≈ 50 µg/mL) | MIC (Pasteurella multocida): 9.6 µM (≈ 25 µg/mL)
SMILES: CC[C@H](C)[C@H](NC(=O)[C@@H](NC(=O)[C@@H]1CCCN1C(=O)[C@@H](NC(=O)[C@@H](NC(=O)[C@H](Cc1cnc[nH]1)NC(=O)[C@@H]1CCCN1C(=O)[C@H](CC(C)C)NC(=O)[C@@H](NC(=O)[C@H](Cc1cnc[nH]1)NC(=O)[C@H](CCCCN)NC(=O)[C@H](C)NC(=O)[C@@H](NC(=O)[C@H](CO)NC(=O)[C@H](CO)NC(=O)[C@H](CC(C)C)NC(=O)[C@H](CO)NC(=O)[C@H](CO)NC(=O)[C@H](CC(C)C)NC(=O)[C@H](CC(C)C)NC(=O)CN)C(C)C)C(C)C)C(C)C)C(C)C)C(C)C)C(=O)N[C@@H](C)C(=O)N[C@@H](CCC(=O)O)C(=O)N[C@@H](Cc1cnc[nH]1)C(=O)N[C@@H](CC(C)C)C(N)=O [GLLSSLSSVAKHVLPHVVPVIAEHL]

MIC [2]: ≥ 140 µM
SMILES: CC[C@H](C)[C@H](NC(=O)[C@H](CC(N)=O)NC(=O)[C@H](CCCN=C(N)N)NC(=O)[C@H](CCC(N)=O)NC(=O)[C@H](Cc1c[nH]c2ccccc12)NC(=O)[C@H](CCCN=C(N)N)NC(=O)[C@@H](N)CCCN=C(N)N)C(=O)N[C@@H](CCCN=C(N)N)C(=O)N[C@@H](CCCCN)C(=O)N[C@@H](Cc1ccc(O)cc1)C(=O)N[C@@H](CCCN=C(N)N)C(=O)N[C@@H](CCCN=C(N)N)C(N)=O [RRWQRNIRKYRR]

MIC [2]: ≥ 108 µM
SMILES: NC(=O)[C@H](CCCN=C(N)N)NC(=O)[C@H](CCCN=C(N)N)NC(=O)[C@H](Cc1c[nH]c2ccccc12)NC(=O)[C@H](CCCN=C(N)N)NC(=O)[C@H](CCCN=C(N)N)NC(=O)[C@H](Cc1c[nH]c2ccccc12)NC(=O)[C@@H](N)Cc1ccccc1 [FWRRWRR]

MIC [2]: ≥ 168 µM
SMILES: CC[C@H](C)[C@H](NC(=O)[C@H](CCCN=C(N)N)NC(=O)[C@@H](NC(=O)[C@H](CCCN=C(N)N)NC(=O)[C@H](CCCN=C(N)N)NC(=O)[C@H](CCC(N)=O)NC(=O)[C@H](Cc1c[nH]c2ccccc12)NC(=O)[C@@H](N)Cc1ccccc1)[C@@H](C)CC)C(=O)N[C@@H](CCCN=C(N)N)C(=O)N[C@@H](CCCN=C(N)N)C(N)=O [FWQRRIRIRR]

MIC [8]: 11.5 µM (≈ 22.6 µg/mL) | MIC [3]: ≥ 64.9 µM | MIC (Staphylococcus aureus): 4.75 µM (≈ 9.36 µg/mL) | MIC (Bacillus subtilis): 9.5 µM (≈ 18.7 µg/mL) | MIC [7]: 5.73 µM (≈ 11.3 µg/mL) | MIC (Escherichia coli): 2.37 µM (≈ 4.68 µg/mL) | MIC (Candida albicans): 2.37 µM (≈ 4.68 µg/mL)
SMILES: CC(C)C[C@@H]1NC(=O)CNC(=O)[C@H](CO)NC(=O)[C@H](CC(C)C)NC(=O)CNC(=O)[C@@H](NC(=O)[C@H](CC(C)C)NC(=O)[C@@H](NC(=O)[C@H](CCCCN)NC(=O)[C@H](CCCCN)NC(=O)CNC(=O)[C@@H](NC(=O)CNC(=O)[C@H](CC(C)C)NC(=O)[C@@H](NC(=O)CNC(=O)[C@H](CO)NC(=O)[C@H](CC(C)C)NC(=O)[C@H](CC(C)C)NC(=O)CN)C(C)C)C(C)C)C(C)C)CSSC[C@@H](C(=O)O)NC1=O [GLLSGVLGVGKKVLCGLSGLC]
